Experimental data from US10933063B2 (priority 2017, dated 2021).
Like-named read-outs stand apart in the source and are kept apart here.

Legend:
BTK [1] = target: T1, BTK (Homo sapiens (Human), UniProt Q06187); settings: read-out: BTK Inhibition
BTK [2] = target: T1, BTK; experiment: biochemical

T1 sequence (Q06187 whole entry, looked up, species assumed): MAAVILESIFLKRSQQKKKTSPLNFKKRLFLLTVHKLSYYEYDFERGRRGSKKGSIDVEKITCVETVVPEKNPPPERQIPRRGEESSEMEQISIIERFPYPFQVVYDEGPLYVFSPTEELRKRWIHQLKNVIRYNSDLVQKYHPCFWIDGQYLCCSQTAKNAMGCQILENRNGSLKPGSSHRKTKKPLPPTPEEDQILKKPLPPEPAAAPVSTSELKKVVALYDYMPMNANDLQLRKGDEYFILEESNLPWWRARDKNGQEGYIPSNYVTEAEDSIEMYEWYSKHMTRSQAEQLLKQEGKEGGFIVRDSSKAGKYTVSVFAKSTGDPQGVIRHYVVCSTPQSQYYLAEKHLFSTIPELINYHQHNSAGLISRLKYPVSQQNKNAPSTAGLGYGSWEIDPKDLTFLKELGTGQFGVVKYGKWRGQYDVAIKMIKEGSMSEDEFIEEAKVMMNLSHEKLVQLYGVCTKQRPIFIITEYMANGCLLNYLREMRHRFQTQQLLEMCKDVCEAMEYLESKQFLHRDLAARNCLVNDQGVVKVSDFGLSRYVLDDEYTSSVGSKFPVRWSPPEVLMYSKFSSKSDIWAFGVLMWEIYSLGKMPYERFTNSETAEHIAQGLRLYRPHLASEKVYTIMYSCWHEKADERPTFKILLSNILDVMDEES

SMILES	IC50 (BTK [1]) [nM]	IC50 (BTK [2]) [nM]
C=CC(=O)N1CC[C@@H](c2nc(-c3ccc(C(=O)Nc4ccccn4)cc3)c3c(C)ncc(OCC)n23)C1 [Example 206, (R)-4-(3-(1-acryloylpyrrolidin-3-yl)-5-ethoxy-8-methylimidazo[1,5-a]pyrazin-1-yl)-N-(pyridin-2-yl)benzamide]	< 10	–
C=CC(=O)N1CCC[C@H]1c1nc(-c2ccc(Oc3cccc(OC)c3F)cc2)c2c(C)ncc(C)n12 [Example 64, (S)-1-(2-(1-(4-(2-fluoro-3-methoxyphenoxy)phenyl)-5,8-dimethylimidazo[1,5-a]pyrazin-3-yl)pyrrolidin-1-yl)prop-2-en-1-one]	< 10	–
CC#CC(=O)N1CC[C@@H](c2nc(-c3ccc(Oc4cccc(OC)c4F)cc3)c3cncc(OCCC)n23)C1 [Example 96, (R)-1-(3-(1-(4-(2-fluoro-3-methoxyphenoxy)phenyl)-5-propoxyimidazo[1,5-a]pyrazin-3-yl)pyrrolidin-1-yl)but-2-yn-1-one]	< 10	–
CC#CC(=O)N1CC[C@@H](c2nc(-c3ccc(Oc4cccc(OC)c4F)cc3)c3c(C)nccn23)C1 [Example 92, (R)-1-(3-(1-(4-(2-fluoro-3-methoxyphenoxy)phenyl)-8-methylimidazo[1,5-a]pyrazin-3-yl)pyrrolidin-1-yl)but-2-yn-1-one]	< 10	–
CC#CC(=O)N1CC[C@@H](c2nc(-c3ccc(Oc4cccc(OC)c4F)cc3)c3cncc(OC)n23)C1 [Example 86, (R)-1-(3-(1-(4-(2-fluoro-3-methoxyphenoxy)phenyl)-5-methoxyimidazo[1,5-a]pyrazin-3-yl)pyrrolidin-1-yl)but-2-yn-1-one]	< 10	–
CN(C)C(=O)N1CCCC[C@H]1c1nc(-c2ccc(C(=O)Nc3ccccn3)cc2)c2c(C(F)(F)F)nccn12 [Example 215, (S)-N,N-dimethyl-2-(1-(4-(pyridin-2-ylcarbamoyl)phenyl)-8-(trifluoromethyl)imidazo [1,5-a]pyrazin-3-yl) piperidine-1-carboxamide]	> 10000	–
C=CC(=O)N1CC[C@@H](c2nc(-c3ccc(Oc4cccc(OC)c4F)cc3)c3cncc(OCCC)n23)C1 [Example 95, (R)-1-(3-(1-(4-(2-fluoro-3-methoxyphenoxy)phenyl)-5-propoxyimidazo[1,5-a]pyrazin-3-yl)pyrrolidin-1-yl)prop-2-en-1-one]	< 10	–
COc1cccc(Oc2ccc(-c3nc([C@@H]4CCN(C(=O)/C=C/CN(C)C5CC5)C4)n4ccnc(C)c34)cc2)c1F [Example 105, (R,E)-4-(cyclopropyl(methyl)amino)-1-(3-(1-(4-(2-fluoro-3-methoxyphenoxy)phenyl)-8-methylimidazo[1,5-a]pyrazin-3-yl)pyrrolidin-1-yl)but-2-en-1-one]	< 10	–
C=CC(=O)N1CC[C@@H](c2nc(-c3ccc(Oc4cccc(OC)c4F)cc3)c3cncc(OCCOC)n23)C1 [Example 104, (R)-1-(3-(1-(4-(2-fluoro-3-methoxyphenoxy)phenyl)-5-(2-methoxyethoxy)imidazo[1,5-a]pyrazin-3-yl)pyrrolidin-1-yl)prop-2-en-1-one]	< 10	–
CC#CC(=O)N1CC[C@@H](c2nc(-c3ccc(Oc4cccc(OC)c4F)cc3)c3cncc(OCCCC)n23)C1 [Example 97, (R)-1-(3-(5-butoxy-1-(4-(2-fluoro-3-methoxyphenoxy)phenyl)imidazo[1,5-a]pyrazin-3-yl)pyrrolidin-1-yl)but-2-yn-1-one]	< 10	–
CC#CC(=O)N1CCC[C@H]1c1nc(-c2ccc(COc3ccccc3)cc2)c2cnccn12 [Example 144, (S)-1-(2-(1-(4-(phenoxymethyl)phenyl)imidazo[1,5-a]pyrazin-3-yl)pyrrolidin-1-yl)but-2-yn-1-one]	–	1000 to 10000
CC#CC(=O)N1CCCC[C@H]1c1nc(-c2ccc(C(=O)Nc3ccccn3)cc2)c2c(C)ncc(C)n12 [Example 189, (S)-4-(3-(1-(but-2-ynoyl)piperidin-2-yl)-5,8-dimethylimidazo[1,5-a]pyrazin-1-yl)-N-(pyridin-2-yl)benzamide]	–	100 to 1000
CC#CC(=O)N1CC[C@@H](c2nc(-c3ccc(Oc4cccc(OC)c4F)cc3)c3cncc(OC4CCOC4)n23)C1 (stereo partly drawn) [Example 99, 1-((3R)-3-(1-(4-(2-fluoro-3-methoxyphenoxy)phenyl)-5-((tetrahydrofuran-3-yl)oxy)imidazo[1,5-a]pyrazin-3-yl)pyrrolidin-1-yl)but-2-yn-1-one]	–	10 to 100
C=CC(=O)N1CCCC[C@H]1c1nc(-c2ccc(Oc3cccc(OC)c3F)cc2)c2c(C(F)(F)F)nccn12 [Example 121, (S)-1-(2-(1-(4-(2-fluoro-3-methoxyphenoxy)phenyl)-8-(trifluoromethyl)imidazo[1,5-a]pyrazin-3-yl)piperidin-1-yl)prop-2-en-1-one]	–	1000 to 10000
CC#CC(=O)N1CCCC[C@H]1c1nc(-c2ccc(Oc3cccc(OC)c3)cc2)c2cnccn12 [Example 59, (S)-1-(2-(1-(4-(3-methoxyphenoxy)phenyl)imidazo[1,5-a]pyrazin-3-yl)piperidin-1-yl)but-2-yn-1-one]	–	100 to 1000
C=CC(=O)N1CCC[C@H]1c1nc(-c2ccc(Oc3cccc(C)c3)cc2)c2cnccn12 [Example 10, (S)-1-(2-(1-(4-(m-tolyloxy)phenyl)imidazo[1,5-a]pyrazin-3-yl)pyrrolidin-1-yl)prop-2-en-1-one]	–	10 to 100
C=CC(=O)N1CC[C@@H](c2nc(-c3ccc(C(=O)Nc4ccccn4)cc3)c3cnccn23)C1 [Example 176, (R)-4-(3-(1-acryloylpyrrolidin-3-yl)imidazo[1,5-a]pyrazin-1-yl)-N-(pyridin-2-yl)benzamide]	–	10 to 100

SMILES	IC50 (BTK [1]) [nM]	IC50 (BTK [2]) [nM]
C=CC(=O)N1CCCC[C@H]1c1nc(-c2cccc(OCc3cccc(C(F)(F)F)c3)c2)c2c(C)nccn12 [Example 162, (S)-1-(2-(8-methyl-1-(3-((3-(trifluoromethyl)benzyl)oxy)phenyl)imidazo[1,5-a]pyrazin-3-yl)piperidin-1-yl)prop-2-en-1-one]	–	1000 to 10000
C=CC(=O)N1CCCC[C@H]1c1nc(-c2ccc(COc3cccc(F)c3)cc2)c2c(C)nccn12 [Example 156, (S)-1-(2-(1-(4-((3-fluorophenoxy)methyl)phenyl)-8-methylimidazo[1,5-a]pyrazin-3-yl)piperidin-1-yl)prop-2-en-1-one]	–	10 to 100
C=CC(=O)N1CCC[C@H]1c1nc(-c2ccc(COc3ccccc3F)cc2)c2cnccn12 [Example 125, (S)-(2-(1-(4-((2-fluorophenoxy)methyl)phenyl)imidazo[1,5-a]pyrazin-3-yl)pyrrolidin-1-yl)prop-2-en-1-one]	–	10 to 100
COc1cccc(Oc2ccc(-c3nc([C@@H]4CCCN4Cc4ccccc4)n4ccncc34)cc2)c1F [Example 32, (S)-3-(1-benzylpyrrolidin-2-yl)-1-(4-(2-fluoro-3-methoxyphenoxy)phenyl)imidazo[1,5-a]pyrazine]	–	1000 to 10000
COc1cccc(Oc2ccc(-c3nc([C@@H]4CCCN4C(=O)C(N)=O)n4ccncc34)cc2)c1F [Example 33]	–	1000 to 10000
C=CC(=O)N1CCC[C@H]1c1nc(-c2ccc(Oc3ccc(OC)cc3)cc2)c2cnccn12 [Example 9, (S)-1-(2-(1-(4-(4-methoxyphenoxy)phenyl)imidazo[1,5-a]pyrazin-3-yl)pyrrolidin-1-yl)prop-2-en-1-one]	–	10 to 100
C=CC(=O)N1CCCC[C@H]1c1nc(-c2ccc(OCc3cccc(F)c3F)cc2)c2c(C)nccn12 [Example 154, (S)-1-(2-(1-(4-((2,3-difluorobenzyl)oxy)phenyl)-8-methylimidazo[1,5-a]pyrazin-3-yl)piperidin-1-yl)prop-2-en-1-one]	–	10 to 100
CC#CC(=O)N1CCCC[C@H]1c1nc(-c2ccc(Oc3cccc(C)c3)cc2)c2c(C)nccn12 [Example 41, (S)-1-(2-(8-methyl-1-(4-(m-tolyloxy)phenyl)imidazo[1,5-a]pyrazin-3-yl)piperidin-1-yl)but-2-yn-1-one]	–	10 to 100
C=CC(=O)N1CCC[C@H]1c1nc(-c2ccc(Oc3cccc(OC)c3F)cc2)c2c(O)nccn12 [Example 36, (S)-1-(2-(1-(4-(2-fluoro-3-methoxyphenoxy)phenyl)-8-hydroxyimidazo[1,5-a]pyrazin-3-yl)pyrrolidin-1-yl)prop-2-en-1-one]	–	10 to 100
C=CC(=O)N1CCC[C@H]1c1nc(-c2ccc(COc3cccc(F)c3)cc2)c2cnccn12 [Example 145, (S)-1-(2-(1-(4-((3-fluorophenoxy)methyl)phenyl)imidazo[1,5-a]pyrazin-3-yl)pyrrolidin-1-yl)prop-2-en-1-one]	–	10 to 100
CC#CC(=O)N1CCC[C@H]1c1nc(-c2ccc(Oc3cccc(OC)c3F)cc2)c2c(C)ncc(C)n12 [Example 65, (S)-1-(2-(1-(4-(2-fluoro-3-methoxyphenoxy)phenyl)-5,8-dimethylimidazo[1,5-a]pyrazin-3-yl)pyrrolidin-1-yl)but-2-yn-1-one]	–	10 to 100
CC#CC(=O)N1CCCC[C@H]1c1nc(-c2ccc(C(=O)Nc3ccccn3)cc2)c2cnccn12 [Example 169, (S)-4-(3-(1-(but-2-ynoyl)piperidin-2-yl)imidazo [1,5-a]pyrazin-1-yl)-N-(pyridin-2-yl)benzamide]	–	100 to 1000
CC#CC(=O)N1CCC[C@@H](c2nc(-c3ccc(C(=O)Nc4ccccn4)cc3)c3c(C)ncc(C)n23)C1 [Example 185, (R)-4-(3-(1-(but-2-ynoyl)piperidin-3-yl)-5,8-dimethylimidazo[1,5-a]pyrazin-1-yl)-N-(pyridin-2-yl)benzamide]	–	100 to 1000
CC#CC(=O)N1CCCC[C@H]1c1nc(-c2cccc(OCc3cccc(C(F)(F)F)c3)c2)c2c(C)nccn12 [Example 163, (S)-1-(2-(8-methyl-1-(3-((3-(trifluoromethyl)benzyl)oxy)phenyl)imidazo[1,5-a]pyrazin-3-yl)piperidin-1-yl)but-2-yn-1-one]	–	1000 to 10000
CC#CC(=O)N1CCCC[C@H]1c1nc(-c2ccc(Oc3cccc(OC)c3)cc2)c2c(C)nccn12 [Example 49, (S)-1-(2-(1-(4-(3-methoxyphenoxy)phenyl)-8-methylimidazo[1,5-a]pyrazin-3-yl)piperidin-1-yl)but-2-yn-1-one]	–	10 to 100
CC#CC(=O)N1CC[C@@H](c2nc(-c3ccc(C(=O)Nc4ccccn4)cc3)c3cncc(C)n23)C1 [Example 181, (R)-4-(3-(1-(but-2-ynoyl)pyrrolidin-3-yl)-5-methylimidazo[1,5-a]pyrazin-1-yl)-N-(pyridin-2-yl)benzamide]	–	1000 to 10000
